Test results published in paper PMC4832243, “Discovery of Potent VEGFR-2 Inhibitors based on Furopyrimidine and Thienopyrimidne Scaffolds as Cancer Targeting Agents” (Scientific Reports, 2016).

System: CD31 and CD34 (% MVD)
Assay: Immunohistochemistry of EAC solid tumor sections, microvessel density (CD31, CD34)
Conditions: oral treatment of EAC-bearing mice

Cc1cccc(NC(=O)Nc2ccc(Oc3ncnc4sc5c(c34)CCCC5)cc2)c1 [Compound 21b]
%MVD in EAC solid tumor: reduction of %MVD
